Laboratory results: US6673823B2, “Use of peroxisome proliferator activated receptor (PPAR)-γ ligands as a treatment for pituitary tumors and associated conditions, such as Cushing's syndrome” (Cedars-Sinai Medical Center, priority 2002, dated 2004)

Experiments:
[1] = tested on: mouse corticotroph tumor cells (AtT20); test: Western blot analysis of TZD-treated corticotroph cells; type: cell-based; conditions: 10^−5 M, vs. vehicle
Protocol: Western Blot Analysis: AtT20 cells were seeded at about 1×10^6 per well and human pituitary cell cultures were seeded at about 0.5×10^6 per well in 6-well plates for 24 hours prior to treatment with TZD's. Cells were then washed with PBS, and protein samples prepared in RIPA buffer and resolved under reducing conditions on 12% SDS-polyacrylamide gels using standard methods (Elstner, E., et al., Ligands for peroxisome proliferator-activated receptor-γ and retinoic acid receptor inhibit growth and induce apoptosis of human breast cancer cells in vitro and in BNX mice. Proc. Natl. Acad. Sci. USA 95:8806-8811 [1998]). Resolved proteins were transferred to nitrocellulose membranes and probed with antibodies to Bc1-2 (1:500), Bax (1:1000), TRAIL (1:500), p53 (1:1000) (all from Santa-Cruz, Cailf.), p-Rb (Ser 795) (1:1000), cleaved and uncleaved caspase-3 (1:500) (Cell Signalling, Beverly, Mass.) overnight at 4° C. After washing, membranes were incubated with appropriate IgG- horseradish peroxidase conjugates, and immunoreactive protein bands were visualized with ECL (Amersham, Buckinghamshire, UK). Total protein was normalized by reprobing with anti-actin antibody (1:5000, Sigma, St. Louis, Mo.) or Ponceau S staining, and protein bands quantified by densitometry (Video Densitometer model 620, Bio-Rad).

human patients = conditions: withdrawn in March, 2000; cited from earlier work
AtT20 cells = test: TUNEL apoptosis analysis; type: cell-based, mouse; conditions: CRH 50 nM alone, 24 hours
Protocol: Terminal Deoxynucleotidyltransferase-mediated dUTP Nick End Labeling (TUNEL). Apoptosis-induced nuclear DNA fragmentation was detected using the in situ cell death detection kit, TMR red (Roche Diagnostics, Indianapolis, IN) following the manufacturer's protocol. Briefly, 48 hours following treatment with thiazolidinedione compounds (TZDs), AtT20 cells were fixed in 4% paraformaldehyde, permeabilized with 0.1% sodium citrate/ 0.6% Tween 20 (pH 7.4) for 2 min at 4° C. prior to incubation in Tunel reaction mix (TMR red/dNTP mix, TdT, and labeling buffer) for 60 min at 37° C. Slides were washed (3×5 min) in PBS/ Triton/ BSA (0.3%) and visualized on an Olympus BH2 immunofluorescent microscope.

[2] = tested on: POMC promoter (-706/+64 rat POMC-luc) in AtT20 cells; test: POMC promoter luciferase reporter transfection; type: cell-based, mouse; conditions: CRH 50 nM, luciferase over vehicle control
Description: Transfection with POMC promoter.

| Compound | expression of pro-apoptotic protein p53 [1] | reason for market withdrawal (human patients) | % apoptosis (TUNEL) (AtT20 cells) | increase in POMC-transcription [2] |
| --- | --- | --- | --- | --- |
| Cc1c(C)c2c(c(C)c1O)CCC(C)(COc1ccc(CC3SC(=O)NC3=O)cc1)O2 (racemic) [Troglitazone, (±)-5-[4[(6-Hydroxy-2,5,7,8-tetramethylchroman-2-yl)methoxy]-benzyl]-2,4-thiazolidinedione] | increased expression | reports of liver toxicity in humans |  |  |
| CRH: Corticotrophin releasing hormone, a potent corticotroph proliferative factor |  |  | 4±0.5% | 1.6 fold |
